Literature values in US20020150627A1, “Composition containing creatine and phosphorus” (priority 2001, published 2002).
Like-named read-outs stand apart in the source and are kept apart here.

Columns and labels:
[1] = test system: subjects; details: for Increase power output compared to placebo according to Wallace et al: four times daily for 5 days
[2] = test system: skeletal muscle; details: 4×5 gram creatine per day for five to six days
[3] = 1000 mg four times daily for 5 days

Row | SMILES | VO2 max elevated [1, 3] [%] | Ventilatory anaerobic threshold elevated [1, 3] [%] | Increase power output compared to placebo according to Wallace et al [1] [%] | Increase power output compared to placebo according to Wallace et al ([1]; listed as phosphate) [%] | Increase power output compared to placebo according to Wallace et al ([1]; listed as Creatine, monohydrate) [%] | Increase power output compared to placebo according to Wallace et al ([1]; listed as creatine, monohydrate) [%] | Increase of skeletal muscle creatine content (average) [2] [%] | Phosphocreatine share of the increase in skeletal muscle creatine content [2] [%]
1 | O=P([O-])([O-])[O-].[Na+].[Na+].[Na+] [Phosphate, tribasic sodium phosphate] | 8 | 10 | 3 | 3 |  |  |  | 
2 | CN(CC(=O)O)C(=N)N.O [creatine monohydrate] |  |  |  |  | 3 | 3 | 20 | 20
